Reference: ChEMBL document CHEMBL1129131, “Identification and structure-activity relationship studies of osthol, a cytotoxic principle from Cnidium monnieri” (Bioorg Med Chem Lett, 1996)
Values after ≈ are worked out from the molar mass of the structure shown.

Tests used:
Format in all cases: functional, cell-based
V79 = assay: Cytotoxicity against V-79 cells; details: Cricetulus griseus
KB = assay: Compound was tested for its cytotoxicity against KB cells; details: Homo sapiens
MM46 = assay: Compound was tested for its cytotoxicity against MM46 cells; details: Mus musculus
P388 = assay: Compound was tested for its cytotoxicity against P-388 cells; details: Mus musculus

Compound	IC50 (V79) [µM]	also measured
COc1ccc2c(c1CCC(C)C)OC(=O)CC2	> 100	–
COc1ccc2ccc(=O)oc2c1CCC(C)(C)O	> 100	–
CCCOc1ccc2ccc(=O)oc2c1CCC(C)C	5.6	–
CC(C)CCc1c(O)ccc2c1OC(=O)CC2	> 100	–
CCCCOc1ccc2ccc(=O)oc2c1CCC(C)C	16	–
COc1ccc2ccc(=O)oc2c1CC(O)C(C)(C)O (configuration not stated)	> 100	–
CC(C)CCc1c(O)ccc2ccc(=O)oc12	40	–
COc1ccc2ccc(=O)oc2c1CC(Br)C(C)(C)Br (configuration not stated)	60	–
CCCC(=O)c1ccc2ccc(=O)oc2c1CCC(C)C	58	–
CC(C)CCc1cccc2ccc(=O)oc12	60	–
CC(=O)c1ccc2ccc(=O)oc2c1CCC(C)C	60	–
COc1ccc2ccc(=O)oc2c1CC1OC1(C)C (configuration not stated)	> 100	–
CCCCCCCOc1ccc2ccc(=O)oc2c1CCC(C)C	17	–
COc1ccc2ccc(=O)oc2c1CCC(C)C	58	–
CCOc1ccc2ccc(=O)oc2c1CCC(C)C	5.8	–
O=c1ccc2ccccc2o1 [COUMARIN]	> 100	–
COc1ccc2ccc(=O)oc2c1 [HERNIARIN]	> 100	–
COc1ccc2ccc(=O)oc2c1CC=C(C)C [OSTHOLE]	57	IC50 (KB): 12 µg/mL (≈ 49.1 µM); IC50 (MM46): 8.6 µg/mL (≈ 35.2 µM); IC50 (P388): 3.1 µg/mL (≈ 12.7 µM)
O=c1ccc2ccc(O)cc2o1 [UMBELLIFERONE]	58	–
